Paper PMC2943919, “Green Tea Catechin, Epigallocatechin Gallate, Suppresses Signaling by the dsRNA Innate Immune Receptor RIG-I” (PLoS ONE, 2010)

Legend:
[1] = target: T1, RIG-I (Retinoic acid-inducible gene I) (Homo sapiens, UniProt O95786); test: RNA-dependent ATPase assay (ADP-Glo) at […]; assay type: biochemical; parameters: gene RIGI; recombinant RIG-I
T1 sequence (O95786 1-925): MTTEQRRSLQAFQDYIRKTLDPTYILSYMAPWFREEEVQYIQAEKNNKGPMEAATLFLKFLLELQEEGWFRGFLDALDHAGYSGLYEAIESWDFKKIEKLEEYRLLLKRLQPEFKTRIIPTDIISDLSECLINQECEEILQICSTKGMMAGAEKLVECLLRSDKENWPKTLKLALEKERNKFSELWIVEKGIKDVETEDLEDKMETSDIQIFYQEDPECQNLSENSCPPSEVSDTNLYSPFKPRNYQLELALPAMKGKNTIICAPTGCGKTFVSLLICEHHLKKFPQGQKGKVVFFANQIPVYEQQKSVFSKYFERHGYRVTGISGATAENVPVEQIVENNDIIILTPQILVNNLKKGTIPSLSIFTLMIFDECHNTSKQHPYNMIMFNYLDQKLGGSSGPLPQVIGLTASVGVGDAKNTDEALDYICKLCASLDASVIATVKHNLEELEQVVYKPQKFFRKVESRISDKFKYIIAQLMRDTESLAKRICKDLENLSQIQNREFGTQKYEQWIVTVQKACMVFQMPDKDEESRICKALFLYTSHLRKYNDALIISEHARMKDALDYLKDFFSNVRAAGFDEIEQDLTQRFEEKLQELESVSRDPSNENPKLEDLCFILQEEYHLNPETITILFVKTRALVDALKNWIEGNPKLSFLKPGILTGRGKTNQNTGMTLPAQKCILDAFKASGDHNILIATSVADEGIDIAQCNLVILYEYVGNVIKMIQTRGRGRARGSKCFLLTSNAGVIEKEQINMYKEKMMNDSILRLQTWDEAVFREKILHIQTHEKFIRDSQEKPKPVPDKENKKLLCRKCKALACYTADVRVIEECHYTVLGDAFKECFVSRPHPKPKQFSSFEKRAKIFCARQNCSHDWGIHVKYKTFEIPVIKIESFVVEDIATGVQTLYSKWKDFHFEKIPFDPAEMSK

[2] = target: T1, RIG-I (Retinoic acid-inducible gene I); test: RNA-dependent ATPase assay (ADP-Glo) with recombinant RIG-I; supported by native gel mobility shift; assay type: biochemical; parameters: gene RIGI; recombinant full length RIG-I

| SMILES | RNA-dependent ATPase assay (ADP-Glo) at 0.5 and 1 μM [1] | IC50 [2] [nM] |
| --- | --- | --- |
| O=C(O[C@@H]1Cc2c(O)cc(O)cc2O[C@@H]1c1ccc(O)c(O)c1)c1cc(O)c(O)c(O)c1 [ECG, epicatechin gallate] | GCG, ECG, CG and TFDG inhibited the shR9-induced RIG-I ATPase activity to similar degree as EGCG | – |
| O=C(O[C@@H]1Cc2c(O)cc(O)cc2O[C@@H]1c1cc(O)c(O)c(O)c1)c1cc(O)c(O)c(O)c1 [EGCG, Epigallocatechin gallate] | – | < 500 |
| O=C(O[C@@H]1Cc2c(O)cc(O)cc2O[C@H]1c1cc(O)c(O)c(O)c1)c1cc(O)c(O)c(O)c1 [GCG, gallocatechin gallate] | GCG, ECG, CG and TFDG inhibited the shR9-induced RIG-I ATPase activity to similar degree as EGCG | – |
